In patent publication US20220281822A1, “PLANT GROWTH REGULATOR AND METHOD FOR PROMOTING PLANT GROWTH” (Kureha Corporation, priority 2019, published 2022):

Assays:
Type in all cases: in vivo
[1] = tested on: Arabidopsis thaliana (Col-O); assay: Seed yield of Arabidopsis thaliana at different compound concentrations (Examples 2 to 4); settings: for Seed yield Ratio: 85th day, Comparative Example 6 (distilled water) set to 1; for Seed yield: harvested on 85th day after seeding, 22° C.
Method: One individual Arabidopsis thaliana (Col-O) was sown in a plastic pot having a diameter of 60 mm and a height of 55 mm. Plastic deep dishes each having a diameter of 160 mm and a height of 28 mm were prepared, and six pots were respectively placed therein. As soil, 45 mL of vermiculite, 22.5 mL of granular soil (JA Granular Kumiai Synthetic Soil No. 3), and 22.5 mL of vermiculite were placed in each pot in this order.
The procedure was the same as in Example 1, except that the room temperature was set to 22° C.
On the 85th day after seeding, seeds were harvested, and the seed yield (mg/plant) was measured.
The same operation as in Example 2 was carried out except that the concentration of L-(+)-ergothioneine aqueous solution was set to 0.1 mM.
The same operation as in Example 2 was carried out except that the concentration of L-(+)-ergothioneine aqueous solution was set to 0.01 mM. […]
The same operation as in Example 2 was carried out except that the L-(+)-ergothioneine aqueous solution was replaced with distilled water.
(§1) The ratio of “grass height” and “flowers and fruits” for Example 1, Comparative Example 1, and Comparative Example 2 to the results of Comparative Example 2 are shown in Table 1 as “Ratio”, respectively. The “seed yield” for Examples 2 to 4 and Comparative Examples 3 to 6 are shown as “Ratio” in Table 2, where the value for Comparative Example 6 is set to 1. The “seed yield” for Examples 5 and 6 and Comparative Examples 7 and 8 are shown as “Ratio” in Table 3, where the value for Comparative Example 8 is set to 1.

[2] = tested on: Arabidopsis thaliana (Col-O); assay: Plant height and number of flowers and fruits of Arabidopsis thaliana after treatment via water supply (Example 1); settings: for Flower and Fruit Ratio / Plant height Ratio: 1 mM, 37th day after seeding, ratio to Comparative Example 2 (distilled water); for Flower and Fruit / Plant height: 50 mL of 1 mM aqueous solution on 21st, 23rd, 25th, 27th days after seeding, measured on 37th day, 25° C.
Method: Arabidopsis thaliana (Col-O) was sown in plastic pots having a width of 65 mm, a depth of 65 mm, and a height of 70 mm, three individuals per pot. Plastic deep dishes each having a diameter of 160 mm and a height of 28 mm were prepared, and three pots were respectively placed therein. As soil, 100 mL of vermiculite, 50 mL of granular soil (JA Granular Kumiai Synthetic Soil No. 3), and 50 mL of vermiculite were placed in each pot in this order.
In a thermostatic chamber set at room temperature of 25° C., the light period was 16 hours and the dark period was 8 hours. The light conditions were set using a fluorescent lamp (PLANT FLEC, 40 W LED fluorescent lamp for plant growth, electric bulb color, available from Nippon Medical and Chemical Instruments Co., Ltd.) so that the light intensity was 5000 lx in the central part under the fluorescent lamp irradiation. Water supply was done from the bottom, and the water level was set at about 5 mm. Ergothioneine treatment was started 4 weeks after seeding. More specifically, on the 21st, 23rd, 25th, and 27th days after seeding, 50 mL of a 1 mM L-(+)-ergothioneine (available from Cayman Chemical) aqueous solution was added instead of water supply.
On the 37th day after seeding, the plant height (cm) and the number of flowers and fruits per Arabidopsis thalianawere measured.
The same operation as in Example 1 was carried out except that L-(+)-ergothioneine in the aqueous solution was replaced with oxidized glutathione (available from Wako Pure Chemical Industries, Ltd.).
The same operation as in Example 1 was carried out except that the L-(+)-ergothioneine aqueous solution was replaced with distilled water.
as §1

[3] = tested on: Arabidopsis thaliana (Col-O); assay: Seed yield of Arabidopsis thaliana at different times of treatment (Examples 5 and 6); settings: 1 mM; for Seed yield: harvested on 82nd day, 22° C.; for Seed yield Ratio: 82nd day, Comparative Example 8 (distilled water) set to 1
Method: The same operation as in Example 2 was carried out.
The same operation as in Example 1 was carried out except that the room temperature was set at 22° C. and L-(+)-ergothioneine was added 2 weeks after seeding, more specifically on the 8th, 10th, 12th, and 14th days.
On the 82nd day after seeding, seeds were harvested, and the seed yield (mg/plant) was measured.
The same operation as in Example 5 was carried out except that L-(+)-ergothioneine was added 4 weeks after seeding, more specifically on the 22nd, 24th, 26th, and 28th days.
The same operation as in Example 5 was carried out except that oxidized glutathione was used in place of L-(+)-ergothioneine in the aqueous solution and added 4 weeks after seeding, more specifically on the 22nd, 24th, 26th, and 28th days.
The same operation as in Example 5 was carried out except that the L-(+)-ergothioneine aqueous solution was replaced with distilled water.
as §1

[4] = time of treatment 4 weeks after seeding (22nd, 24th, 26th, 28th days)
[5] = time of treatment 4 weeks after seeding

Compound	Seed yield Ratio ([1]; compound concentration 1 mM)	Seed yield ([1]; compound concentration 1 mM) [mg/plant]	Flower and Fruit Ratio [2]	Plant height Ratio [2]	Flower and Fruit [2] [Number/plant]	Plant height [2] [cm]	Seed yield [3, 4] [mg/plant]	Seed yield Ratio [3, 5]	Seed yield Ratio ([1]; compound concentration 0.01 mM)	Seed yield ([1]; compound concentration 0.01 mM) [mg/plant]	Seed yield Ratio ([1]; compound concentration 0.1 mM)	Seed yield ([1]; compound concentration 0.1 mM) [mg/plant]	Seed yield ([3]; time of treatment 2 weeks after seeding (8th, 10th, 12th, 14th days)) [mg/plant]	Seed yield Ratio ([3]; time of treatment 2 weeks after seeding)
N[C@@H](CCC(=O)O)C(=O)O [L-glutamic acid, reference compound]	1.0	90	–	–	–	–	–	–	–	–	–	–	–	–
oxidized glutathione [reference compound]	1.2	100	1.5	1.1	22	24	92	1.3	–	–	–	–	–	–
O=C(O)[C@@H]1CCCN1 [L-proline, reference compound]	1.2	102	–	–	–	–	–	–	–	–	–	–	–	–
C[N+](C)(C)[C@@H](Cc1c[nH]c(=S)[nH]1)C(=O)[O-] [L-(+)-ergothioneine]	1.7	142	1.7	1.3	26	29	114	1.7	1.3	109	1.5	130	140	2.0
